Results on 21 compounds are retold here after PubChem BioAssay AID330 (DTP/NCI, 2004).

The test system of the assay is P388 leukemia ip, CD2F1 mice, survival T/C. The assay is described as follows: NCI In Vivo Anticancer Drug Screen. Data for tumor model P388 Leukemia (intraperitoneal) in CD2F1 (CDF1) mice. The note with it: endpoint: median survival time, higher = longer survival. Summed up:
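Mice carrying the transplanted tumor received test compound or vehicle. Survival was recorded in each group, and the value is the treated-group measurement divided by that of the vehicle-treated control group.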

The mark [1] stands for this setting: dose: 50.0 mg/kg/injection, schedule: Q01DX009 (ip), vehicle: Klucel (hydroxypropylcellulose) (HPC).
The mark [2] stands for this setting: dose: 100.0 mg/kg/injection, schedule: Q01DX009 (ip), vehicle: Klucel (hydroxypropylcellulose) (HPC).
[3] abbreviates: dose: 200.0 mg/kg/injection, schedule: Q01DX009 (ip), vehicle: Klucel (hydroxypropylcellulose) (HPC).
The mark [4] stands for this setting: dose: 50.0 mg/kg/injection, schedule: Q01DX005 (ip), vehicle: Klucel (hydroxypropylcellulose) (HPC).
Setting [5] is: dose: 100.0 mg/kg/injection, schedule: Q01DX005 (ip), vehicle: Klucel (hydroxypropylcellulose) (HPC).
Where [6] appears, read: dose: 200.0 mg/kg/injection, schedule: Q01DX005 (ip), vehicle: Klucel (hydroxypropylcellulose) (HPC).
Where [7] appears, read: dose: 50.0 mg/kg/injection, schedule: Q01DX009 (ip), vehicle: saline with Tween-80.
Setting [8] is: dose: 100.0 mg/kg/injection, schedule: Q01DX009 (ip), vehicle: saline with Tween-80.
The mark [9] stands for this setting: dose: 50.0 mg/kg/injection, schedule: Q01DX009 (ip), vehicle: saline.
[10] abbreviates: dose: 100.0 mg/kg/injection, schedule: Q01DX009 (ip), vehicle: saline.
Setting [11] is: dose: 200.0 mg/kg/injection, schedule: Q01DX009 (ip), vehicle: saline.
Setting [12] is: dose: 200.0 mg/kg/injection, schedule: Q01DX009 (ip), vehicle: saline with Tween-80.

Several values for one entry are separate records, joined by “and”; a condition that tells them apart may be missing. Equal values may be shown once. Inconclusive results and toxic doses are left out.

Take `COCCN[C@@H]1C[C@@](C)(O)Cc2cc3c(c(O)c21)C(=O)c1c(O)cc2c(c1C3=O)O[C@H]1O[C@]2(C)[C@@H](O)[C@H](N(C)C)[C@H]1O`: the T/C (dose: 2.5 mg/kg/injection, schedule: Q01DX009 (ip), vehicle: other) is 105 % of control; the T/C (dose: 5.0 mg/kg/injection, schedule: Q01DX009 (ip), vehicle: other) is 105 % of control; the T/C (dose: 7.5 mg/kg/injection, schedule: Q01DX009 (ip), vehicle: other) is 120 % of control; the T/C (dose: 10.0 mg/kg/injection, schedule: Q01DX009 (ip), vehicle: other) was 111 % of control; the T/C (dose: 60.0 mg/kg/injection, schedule: Q01DX009 (ip), vehicle: other) is 154 % of control.

Consider `O=C(c1ccc(Cl)c(Cl)c1)N1CCNC1=S`, for which the T/C runs as follows: under setting [1], 104 % of control; under setting [2], 104 % of control; under setting [3], 100 % of control.

With `OC(CCl)Cn1nc2ccc3ccccc3c2n1` (configuration not stated), the T/C was 102 % of control under setting [4]; 100 % of control under setting [5]; 103 % of control (dose: 100.0 mg/kg/injection, schedule: Q04DX003 (ip), vehicle: Klucel (hydroxypropylcellulose) (HPC)); 101 % of control under setting [6]; 102 % of control (dose: 200.0 mg/kg/injection, schedule: Q04DX003 (ip), vehicle: Klucel (hydroxypropylcellulose) (HPC)); 96 % of control (dose: 400.0 mg/kg/injection, schedule: Q04DX003 (ip), vehicle: Klucel (hydroxypropylcellulose) (HPC)).

In the case of `O=C(O)/C=N/NS(=O)(=O)Cc1ccccc1`, the T/C by setting is: (dose: 100.0 mg/kg/injection, schedule: Q01DX009 (ip), vehicle: other) 185 % of control; (dose: 200.0 mg/kg/injection, schedule: Q01DX009 (ip), vehicle: other) 154 % of control and 166 % of control.

For `CN(C)CCCN1CN(CCCN(C)C)CC(C)(C)C1`, the T/C by setting is: under setting [7], 103 % of control; under setting [8], 106 % of control.

Take `CNCCC(Oc1ccccc1OC)c1ccccc1` (configuration not stated): the T/C is 106 % of control (dose: 12.5 mg/kg/injection, schedule: Q04DX002 (ip), vehicle: saline with Tween-80); 100 % of control (dose: 25.0 mg/kg/injection, schedule: Q04DX002 (ip), vehicle: saline with Tween-80); 113 % of control (dose: 25.0 mg/kg/injection, schedule: Q04DX002 (ip), vehicle: saline); 99 % of control and 98 % of control (dose: 50.0 mg/kg/injection, schedule: Q04DX002 (ip), vehicle: saline with Tween-80); 103 % of control (dose: 50.0 mg/kg/injection, schedule: Q04DX002 (ip), vehicle: saline).

Take `CCOC(=O)N1Cc2cc3ccccc3nc2C1CC(=O)O` (configuration not stated): the T/C was 95 % of control under setting [3] and 104 % of control (dose: 400.0 mg/kg/injection, schedule: Q01DX009 (ip), vehicle: Klucel (hydroxypropylcellulose) (HPC)).

As to `CCN(CC)c1ccc(/C=C(\C#N)C(N)=S)cc1`, the T/C under setting [9] was 89 % of control, the T/C under setting [10] was 101 % of control and the T/C under setting [11] was 105 % of control.

Consider `CCN(CC)CCSS(=O)(=O)CCN(CC)CC`, for which the T/C by setting is: (dose: 50.0 mg/kg/injection, schedule: Q01DX005 (ip), vehicle: saline) 100 % of control; (dose: 100.0 mg/kg/injection, schedule: Q01DX005 (ip), vehicle: saline) 109 % of control.

As for `CCCCN(CCCC)c1cc(C(=O)CCCCCN)c2ccccc2n1`, the T/C reads like this: (dose: 6.25 mg/kg/injection, schedule: Q01DX005 (ip), vehicle: saline) 97 % of control; (dose: 12.5 mg/kg/injection, schedule: Q01DX005 (ip), vehicle: saline) 90 % of control; (dose: 25.0 mg/kg/injection, schedule: Q01DX005 (ip), vehicle: saline) 90 % of control and 94 % of control.

For the compound `c1ccc2[nH]c(CN(CCN(Cc3nc4ccccc4[nH]3)Cc3nc4ccccc4[nH]3)Cc3nc4ccccc4[nH]3)nc2c1`, the T/C (dose: 1.56 mg/kg/injection, schedule: Q01DX005 (ip), vehicle: DMSO) was 104 % of control; the T/C (dose: 3.12 mg/kg/injection, schedule: Q01DX005 (ip), vehicle: DMSO) was 106 % of control; the T/C (dose: 6.25 mg/kg/injection, schedule: Q01DX005 (ip), vehicle: DMSO) was 105 % of control; the T/C (dose: 12.5 mg/kg/injection, schedule: Q01DX005 (ip), vehicle: DMSO) is 107 % of control; the T/C (dose: 25.0 mg/kg/injection, schedule: Q01DX005 (ip), vehicle: DMSO) is 108 % of control.

As for `O=[N+]([O-])C1CCCCCCCCCCC1`, the T/C is, setting by setting: (dose: 100.0 mg/kg/injection, schedule: Q01DX001 (ip), vehicle: other) 100 % of control; (dose: 200.0 mg/kg/injection, schedule: Q01DX001 (ip), vehicle: other) 100 % of control; (dose: 400.0 mg/kg/injection, schedule: Q01DX001 (ip), vehicle: other) 108 % of control.

Take `Nc1ncnc2c1nnn2C1OC(CO)C(O)C1O` (configuration not stated): the T/C reads like this: under setting [1], 157 % of control; under setting [2], 100 % of control.

For `C[n+]1ccccc1C1(O)CCCC1`, the T/C was 94 % of control under setting [7], 100 % of control under setting [8] and 100 % of control under setting [12].

Consider `COC(=O)c1cn(C)c(-c2ccccc2)c1C(=O)OC`, for which the T/C is, setting by setting: under setting [4], 100 % of control; under setting [5], 100 % of control; under setting [6], 97 % of control.

With `Cn1c(N)c(C(=O)/C=C/c2ccccc2)c(=O)n(C)c1=O`, the T/C is 99 % of control and 124 % of control (dose: 12.5 mg/kg/injection, schedule: Q01DX009 (ip), vehicle: Klucel (hydroxypropylcellulose) (HPC)); 120 % of control and 93 % of control (dose: 25.0 mg/kg/injection, schedule: Q01DX009 (ip), vehicle: Klucel (hydroxypropylcellulose) (HPC)); 93 % of control and 113 % of control and 92 % of control under setting [2]; 116 % of control under setting [3].

Turning to `Nc1ncnc(N2C(=S)OC3C(O)C(CO)OC32)c1N` (configuration not stated), the T/C is, setting by setting: (dose: 25.0 mg/kg/injection, schedule: Q04DX003 (ip), vehicle: water) 100 % of control; (dose: 50.0 mg/kg/injection, schedule: Q04DX003 (ip), vehicle: water) 95 % of control; (dose: 100.0 mg/kg/injection, schedule: Q04DX003 (ip), vehicle: water) 95 % of control; (dose: 200.0 mg/kg/injection, schedule: Q04DX003 (ip), vehicle: water) 113 % of control; (dose: 400.0 mg/kg/injection, schedule: Q04DX003 (ip), vehicle: water) 95 % of control.

On to `COC(=O)CCCC(NC(=O)c1ccc([N+](=O)[O-])cc1)C(=O)OC` (configuration not stated), for which the T/C under setting [7] was 98 % of control, the T/C under setting [8] is 96 % of control and the T/C under setting [12] is 96 % of control.

For the compound `O=C1NC(Cc2ccccc2)C(=O)N2CCCC12` (configuration not stated), the T/C was 100 % of control under setting [9], 96 % of control under setting [10] and 101 % of control under setting [11].

Regarding `S=C(SCc1nc(-c2ccc(Cl)cc2)no1)N1CCSCC1`, the T/C was 97 % of control (dose: 60.0 mg/kg/injection, schedule: Q01DX005 (ip), vehicle: saline with Tween-80); 92 % of control (dose: 120.0 mg/kg/injection, schedule: Q01DX005 (ip), vehicle: saline with Tween-80); 105 % of control (dose: 240.0 mg/kg/injection, schedule: Q01DX005 (ip), vehicle: saline with Tween-80).

`[CH3][Sn]([CH3])([N]=C=S)[N]=C=S`: the T/C is 86 % of control and 93 % of control (dose: 6.25 mg/kg/injection, schedule: Q01DX009 (ip), vehicle: saline); 100 % of control and 102 % of control and 106 % of control (dose: 12.5 mg/kg/injection, schedule: Q01DX009 (ip), vehicle: saline); 99 % of control and 102 % of control (dose: 25.0 mg/kg/injection, schedule: Q01DX009 (ip), vehicle: saline); 99 % of control and 103 % of control under setting [9]; 114 % of control (dose: 50.0 mg/kg/injection, schedule: Q01DX009 (ip), vehicle: suspension in saline).
